Results as given in US20200187504A1, “ENVIRONMENTALLY FRIENDLY COMPOSITIONS FOR FOLIAR AND GRANULAR CONTROL OF WEEDS” (priority 2018, published 2020).

Tests used:
French marigold = details: Choi et al. (1996); cited from earlier work
seed geranium = details: Lee et al. (1996), in combination with nitrogen, phosphorus, and potassium; cited from earlier work
Perennial Grass = assay: Weedy turf test plots: perennial grass cover and turf stress after treatment; assay type: in vivo; details: for Perennial Grass 8 months: cover in weedy turf plots of Table 4, 8 months, B and N rates per treatment; for Perennial Grass 10 months: cover in weedy turf plots of Table 4, 10 months; for Perennial Grass 12 months: cover in weedy turf plots of Table 4, 12 months; for 8-12 month average grass cover: weedy turf plots of Table 4
Source text: (§1) Then, multiple plots were installed in weedy turf for liquid boron fertilizer application. The plots listed in Table 4 were used for varying application rates of B1300 where the amount of liquid applied to each plot varied. The sprayer was weighed before and after each application and the application rate determined by calculation knowing the concentration of B1300 liquid applied. The results of foliar liquid applied in controlling invasive species is reported in FIG. 3 and compared to an untreated control. As presented in FIG. 3, the plots were monitored 1 month, 8 months and 10 months after four different application rates of liquid B1300 (47 pounds B/acre, 62 pounds B/acre, 75 pounds B/acre, and 93 pounds B/acre), which show the effectiveness of each rate in limiting the growth of invasive plant species. The weedy plants controlled included dandelion (Taraxacum officiniale), oxeye daisy (Chrysanthemum leucanthemum), black medic (Medicago lupulina), Canadian thistle (Circium arvense), and white clover (Trifolium repens). The desirable perennial grasses that were unharmed or stimulated included Kentucky bluegrass (Poa pratensis) and smooth brome (Bromus inermis). The effectiveness of relevant commercial products targeting control of invasive plant species are shown in FIG. 5C and include glyphosate, Natria FeHEDTA and 2-4 D.
(§2) Table 4 lists the tested plots with various treatment using granular and/or liquid boron formulations alone, or in combination with another micronutrient Cu and/or macronutrients including N, P, K. FIG. 3 and FIGS. 5A-5E represent phytotoxicity effect on weed control by investigating coverage after the desired treatments from the test plots listed in Table 4. Also, FIGS. 9A-9D to FIGS. 25A-25D present actual vegetation conditions of each plot after the desired treatment described in Table 4.
(§3) In this example the fertilizer was applied to weedy turf grass in September with approximately 50% invasive plant cover and then monitored again one, eight and ten months after initial application. At this North American field site snow covered the ground from approximately December through March. The weedy plants controlled included dandelion (Taraxacum officiniale), oxeye daisy (Chrysanthemum leucanthemum), black medic (Medicago lupulina), Canadian thistle (Circium arvense), and white clover (Trifolium repens). The desirable perennial grasses that were unharmed or stimulated included Kentucky bluegrass (Poa pratensis) and smooth brome (Bromus inermis).

weedy turf = assay: Weedy turf test plots: Vegetation Ranking Index; assay type: in vivo; details: healthy perennial grass cover x 3.5 minus 2.5 x stressed/unhealthy grass minus weed cover
Source text: as §2

Forbs (Weeds) = assay: Weedy turf test plots: forb (weed) cover and weed control after treatment; assay type: in vivo; details: for control of invasive weeds, in words: Fall-treated turf plots of Table 4, 10-month study period, rate as in the label; for Forbs (Weeds) 8 months: cover in weedy turf plots of Table 4, 8 months; for Forbs (Weeds) 10 months: cover in weedy turf plots of Table 4, 10 months; for Forbs (Weeds) 12 months: cover in weedy turf plots of Table 4, 12 months; for 8-12 month average weed cover: weedy turf plots of Table 4
Source text: as §1, with “the plots were monitored 1 month, 8 months and 10 months after four different application” left out
as §2
as §3, with “In this example the fertilizer was applied to weedy turf grass in September with approximately 50% invasive plant cover and then monitored again one, eight and ten months after initial application.” left out

humans = details: 2005 carcinogen assessment guidelines; cited from earlier work
prostrate knotweed = assay: Foliar spray on prostrate knotweed, compared with Roundup; assay type: in vivo, Polygonum aviculare
Source text: In this example, liquid B1300 product was formulated by dissolving 1300 grams of 20.5% Boron (Solubor®) into 4 gallons of water for a foliar spray to target plants, either with or without ‘drizzle down’ of the liquid into the roots. Also, liquid B1440 product was formulated by dissolving 1440 grams of 20.5% Boron (Solubor®) into 4 gallons of water. Many invasive plants are controlled by B1300 foliar spray as presented in FIGS. 1A-1C or B1440 foliar spray as presented in FIGS. 2A-2C. Annual invasive plant species are easily controlled by phytotoxic nutrient addition since they have to grow from seed every year and have the least reliance on well—developed/extensive root systems and/or taproots that store plant resources. Annual invasive plants also have to grow from near the soil surface every year where it is easiest to add phytotoxic micronutrients and change the soil chemistry to inhibit or control the annual plant's growth. Perennial invasive plants grow every year from the previous years roots and take generally two forms: tap root species and extensive well-developed root systems. In general, it is difficult to control these invasive perennial plants compared to annual plants due to roots with plant resources deep in the soil. […]

chlorophyllitic plants = details: as little as; cited from earlier work
[1] = test system: selected grasses and forbs; details: greenhouse trials, Munshower and others (2006); cited from earlier work

## [Cu] [Cu, copper]
French marigold
  concentration inducing micro-nutrient toxicity: 4000 µM
Seed geranium
  concentration of nutrient solution inducing toxicity symptoms: 500 µM

## [Zn] [Zn, zinc]
French marigold
  concentration inducing micro-nutrient toxicity: 5000 µM
Seed geranium
  concentration of nutrient solution inducing toxicity symptoms: 500 µM

## O=C(O)COc1ccc(Cl)cc1Cl [2-4D (S), 2,4-Dichlorophenoxyacetic acid]
Perennial Grass
  Perennial Grass 8 months: 90%
  Perennial Grass 10 months: 85%
  Perennial Grass 12 months: 78%
  8-12 month average grass cover: 84%
Weedy turf
  Vegetation Ranking Index: 13
Forbs (Weeds)
  control of invasive weeds, in words: short-term treatment effect
  Forbs (Weeds) 8 months: 5%
  Forbs (Weeds) 10 months: 15%
  Forbs (Weeds) 12 months: 22%
  8-12 month average weed cover: 14%

## [Fe] [Fe, iron]
French marigold
  concentration inducing micro-nutrient toxicity: 4000 µM
Seed geranium
  concentration of nutrient solution inducing toxicity symptoms: 500 µM

## [Mn+2] [Mn, manganese]
French marigold
  concentration inducing micro-nutrient toxicity: 2000 µM
Seed geranium
  concentration of nutrient solution inducing toxicity symptoms: 1000 µM

## OB(O)O [boric acid]
humans
  U.S. EPA carcinogenicity classification: not likely to be carcinogenic to humans

## O=C(O)CNCP(=O)(O)O [Glyphosate (S), glyphosate]
Perennial Grass; Fall-treated turf plots of Table 4, 10-month study period, rate as in the label
  stress on perennial turf grasses, in words: has no perennial grasses
Perennial Grass
  Perennial Grass 8 months: 0%
  Perennial Grass 10 months: 0%
  Perennial Grass 12 months: 0%
  8-12 month average grass cover: 0%
Prostrate knotweed; along a gravel trail, FIG. 26D
  effectiveness on prostrate knotweed, in words: highly effective
Prostrate knotweed; plots put out 3 hours before a heavy rain (~1.0")
  effectiveness in rain affected test: highly effective
Weedy turf
  Vegetation Ranking Index: −133
Forbs (Weeds)
  control of invasive weeds, in words: dominated by weeds by mid-summer
  Forbs (Weeds) 8 months: 10%
  Forbs (Weeds) 10 months: 95%
  Forbs (Weeds) 12 months: 90%
  8-12 month average weed cover: 65%
Forbs (Weeds); about 30 days after treatment
  effectiveness in treated turf plots: 100%
Forbs (Weeds); next year after treatment, pre-treatment ~50% weed cover
  weed cover: ~75%
Chlorophyllitic plants
  application rate effective at causing photosynthetic disruption: 0.75 pounds active ingredient per acre

## [Mo] [Mo, molybdenum]
French marigold
  concentration inducing micro-nutrient toxicity: 1000 µM
Seed geranium
  concentration of nutrient solution inducing toxicity symptoms: 250 µM

## [B] [B, boron]
French marigold
  concentration inducing micro-nutrient toxicity: 500 µM
Seed geranium
  concentration of nutrient solution inducing toxicity symptoms: 500 µM
[1]
  solution concentration at which plants performed adequately: up to 40 mg B/L
